Data on ten compounds can be found in US20250170266A1 (ZYMEWORKS BC INC., priority 2022, published 2025).

Read-outs that look alike come from different tables or passages of the source. A value given as a limit tells only on which side of the number the result lay.

What all share (type): cell-based
Assay [1] deals with T1, hTLR7 (Homo sapiens, UniProt Q9NYK1).
T1 construct: host or cells: HEK-Blue hTLR7 reporter cells (HEK293-derived, own knowledge)
T1 sequence (Q9NYK1 27-1049): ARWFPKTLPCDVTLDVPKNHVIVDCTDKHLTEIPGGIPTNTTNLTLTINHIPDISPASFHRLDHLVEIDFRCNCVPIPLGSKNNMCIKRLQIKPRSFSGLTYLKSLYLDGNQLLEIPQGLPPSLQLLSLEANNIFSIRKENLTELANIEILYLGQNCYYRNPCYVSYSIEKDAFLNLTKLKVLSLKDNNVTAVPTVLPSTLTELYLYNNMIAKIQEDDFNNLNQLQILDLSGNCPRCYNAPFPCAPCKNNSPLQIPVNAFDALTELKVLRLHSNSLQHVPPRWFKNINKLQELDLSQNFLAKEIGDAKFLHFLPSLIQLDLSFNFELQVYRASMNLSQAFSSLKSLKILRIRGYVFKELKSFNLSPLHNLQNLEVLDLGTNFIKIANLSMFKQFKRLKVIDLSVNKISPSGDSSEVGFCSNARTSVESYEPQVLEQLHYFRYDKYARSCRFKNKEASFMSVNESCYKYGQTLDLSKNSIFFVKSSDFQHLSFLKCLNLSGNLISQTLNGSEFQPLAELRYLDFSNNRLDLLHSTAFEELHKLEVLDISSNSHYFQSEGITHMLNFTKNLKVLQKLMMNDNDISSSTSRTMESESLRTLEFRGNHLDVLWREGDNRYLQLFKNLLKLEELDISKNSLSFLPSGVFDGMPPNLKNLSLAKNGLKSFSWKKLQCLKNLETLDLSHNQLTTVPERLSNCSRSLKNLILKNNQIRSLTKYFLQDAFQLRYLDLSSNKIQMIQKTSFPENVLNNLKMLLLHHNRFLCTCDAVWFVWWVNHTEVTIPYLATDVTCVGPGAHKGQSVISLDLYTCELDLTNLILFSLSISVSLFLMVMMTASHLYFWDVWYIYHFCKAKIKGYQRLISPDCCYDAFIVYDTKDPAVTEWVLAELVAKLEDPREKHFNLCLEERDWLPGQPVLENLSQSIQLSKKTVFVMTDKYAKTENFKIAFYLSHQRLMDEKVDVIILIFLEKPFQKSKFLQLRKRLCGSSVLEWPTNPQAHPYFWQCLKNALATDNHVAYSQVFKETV
As to the kind of experiment: Reporter Gene Assay (RGA), HEK-Blue hTLR7 reporter cells, SEAP readout. Particulars: overnight incubation, SEAP absorbance 620 nm. Put shortly:
(§1)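 HEK-Blue reporter cells expressing human or mouse TLR7 (1.5×10^4 cells) were treated with an 11-point, 4-fold compound titration from 15 pM in HEK-Blue Detection medium. Incubation was overnight at 37° C with 5% CO2. Secreted embryonic alkaline phosphatase was read as absorbance at 620 nm.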
(A reporter such as luciferase makes a cellular process visible.)

In assay [2] the target is T2, mTLR7 (Mus musculus, UniProt P58681).
T2 construct: host or cells: HEK-Blue mTLR7 reporter cells (HEK293-derived, own knowledge)
T2 sequence (P58681 27-1050): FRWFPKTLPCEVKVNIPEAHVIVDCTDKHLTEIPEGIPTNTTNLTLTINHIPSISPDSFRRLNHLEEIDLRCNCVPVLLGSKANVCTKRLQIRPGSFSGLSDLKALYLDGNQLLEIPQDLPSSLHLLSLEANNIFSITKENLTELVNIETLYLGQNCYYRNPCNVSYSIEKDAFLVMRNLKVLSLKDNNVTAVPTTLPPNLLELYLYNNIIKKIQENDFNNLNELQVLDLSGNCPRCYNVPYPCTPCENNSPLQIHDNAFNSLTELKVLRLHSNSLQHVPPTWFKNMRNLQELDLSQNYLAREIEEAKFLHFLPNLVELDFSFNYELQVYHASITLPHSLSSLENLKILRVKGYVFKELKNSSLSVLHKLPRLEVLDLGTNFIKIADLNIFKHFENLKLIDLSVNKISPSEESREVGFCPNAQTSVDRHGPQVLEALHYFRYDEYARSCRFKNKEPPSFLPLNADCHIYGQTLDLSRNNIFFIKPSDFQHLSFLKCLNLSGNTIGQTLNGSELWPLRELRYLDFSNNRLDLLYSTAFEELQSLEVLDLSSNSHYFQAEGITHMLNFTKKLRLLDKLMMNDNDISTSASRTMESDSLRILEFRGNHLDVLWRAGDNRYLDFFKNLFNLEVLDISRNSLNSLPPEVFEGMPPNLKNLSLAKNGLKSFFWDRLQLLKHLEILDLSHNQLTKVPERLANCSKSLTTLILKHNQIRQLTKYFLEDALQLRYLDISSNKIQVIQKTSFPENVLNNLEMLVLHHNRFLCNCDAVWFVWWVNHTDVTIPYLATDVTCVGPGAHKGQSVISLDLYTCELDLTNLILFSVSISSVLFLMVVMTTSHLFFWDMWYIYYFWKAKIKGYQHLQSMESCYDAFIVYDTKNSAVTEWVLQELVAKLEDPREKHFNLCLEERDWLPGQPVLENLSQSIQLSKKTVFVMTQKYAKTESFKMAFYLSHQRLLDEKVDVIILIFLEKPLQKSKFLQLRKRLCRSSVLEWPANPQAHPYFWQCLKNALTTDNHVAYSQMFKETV
As to the kind of experiment: Reporter Gene Assay (RGA), HEK-Blue mTLR7 reporter cells, SEAP readout. Particulars: overnight incubation, SEAP absorbance 620 nm. In a few lines:
as §1

Assay [3] relates to Mouse splenocytes. As to the kind of experiment: Mouse Splenocyte Assay, cytokine release (HTRF). Particulars: 24 hours, mIL6 in supernatant; for EC50: Splenocyte, read-out: Splenocyte IL6 EC50. In a few lines:
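Splenocytes from female balb/c nude mice, thawed, 100,000 per well in RPMI + 10% FBS. Exposed for 24 h at 37 °C to a 4-fold 11-point compound titration from 15 μM; supernatant mIL6 and mTNFα measured by HTRF.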
A general note: TR-FRET usually uses a lanthanide donor and a delayed reading to cut background.

Assay [4] has as its system Human peripheral blood mononuclear cells (PBMCs). As to the kind of experiment: Human PBMC Assay, cytokine release (HTRF). Particulars: 24 hours; for EC50: PBMC. Put shortly:
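Cryopreserved human PBMCs, rested overnight with 10 ng/ml hIL3, then 300,000 cells/well treated 24 h at 37° C with compound (4-fold, 11-point titration from 15 μM) in RPMI+10% FBS. Supernatant hIL6, hTNFα and hIFNα measured by HTRF; growth medium as negative control.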

The mark [5] stands for this setting: hIFNα in supernatant, EC50 values approximated and divided into groups, read-out: PBMC IFNa EC50.
[6] abbreviates: hIL6 in supernatant, read-out: PBMC IL6 EC50.

Usually EC50 stands for the concentration at which the effect is half-maximal. As to `CCCCCNc1nc(N)c2nc(O)n(Cc3ccc(CNC4CC(F)(F)C4)cc3)c2n1` [Compound 186, 6-amino-9-(4-(((3,3-difluorocyclobutyl)amino)methyl)benzyl)-2-(pentyl-amino)-9H-purin-8-ol], the concentration for a half-maximal effect (EC50) in assay [1] was 452 nM; in assay [2], 11.1 nM; in assay [4] (setting [5]), above 10 nM. For the same compound, the “Splenocyte IL6 EC50 (nM)” value in assay [3] is “inactive”. Besides, in assay [4] (hIL6 in supernatant), the “PBMC IL6 EC50 (nM)” value is “inactive”.

With `CCCCCNc1nc(N)c2nc(O)n(Cc3ccc(CN4CCNCC4)cc3)c2n1` [Compound 187, 6-amino-2-(pentylamino)-9-(4-(piperazin-1-ylmethyl)benzyl)-9H-purin-8-ol], the EC50 is 94 nM in assay [1]; 9 nM in assay [2]; 131 nM in assay [3]; 0.1 to 1 nM in assay [4] (setting [5]); 9 nM in assay [4] (setting [6]).

With `CCCCCNc1nc(N)c2nc(O)n(Cc3ccc(CN4CCC(N)CC4)cc3)c2n1` [Compound 188, 6-amino-9-(4-((4-aminopiperidin-1-yl)methyl)benzyl)-2-(pentylamino)-9H-purin-8-ol], the EC50 is 351 nM in assay [1]; 26.2 nM in assay [2]; 198 nM in assay [3]; 1 to 10 nM in assay [4] (setting [5]); 19.6 nM in assay [4] (setting [6]).

Consider `CCCCCNc1nc(N)c2nc(O)n(Cc3ccc(CNCCN)cc3)c2n1` [Compound 189, 6-amino-9-(4-(((2-aminoethyl)amino)methyl)benzyl)-2-(pentylamino)-9H-purin-8-ol], for which the half-maximal effective concentration (EC50) in assay [1] was 698 nM; in assay [2], 41 nM; in assay [3] it was 80.6 nM; in assay [4] (setting [5]) it was 1 to 10 nM; in assay [4] (setting [6]), 151 nM.

Take `CCCCCNc1nc(N)c2nc(O)n(Cc3ccc(CNCCCCN)cc3)c2n1` [Compound 190, 6-amino-9-(4-(((4-aminobutyl)amino)methyl)benzyl)-2-(pentylamino)-9H-purin-8-ol]: the EC50 is 1420 nM in assay [1]; 80.8 nM in assay [2]; 106 nM in assay [3]; 1 to 10 nM in assay [4] (setting [5]); 131 nM in assay [4] (setting [6]).

With `CCCCCNc1nc(N)c2nc(O)n(Cc3ccc(CNCc4ccc(CN)cc4)cc3)c2n1` [Compound 191, 6-amino-9-(4-(((4-(aminomethyl)benzyl)amino)methyl)benzyl)-2-(pentyl-amino)-9H-purin-8-ol], the EC50 was 29 nM in assay [1], 0.5 nM in assay [2], 45.9 nM in assay [3] and below 0.1 nM in assay [4] (setting [5]).

As for `CCOc1nc(N)c2nc(O)n(Cc3ccc(CN4CCNCC4)nc3)c2n1` [Compound 192, 6-amino-2-ethoxy-9-((6-(piperazin-1-ylmethyl)pyridin-3-yl)methyl)-9H-purin-8-ol], the EC50 was 51.4 nM in assay [1], 681 nM in assay [2], above 10 nM in assay [4] (setting [5]) and 202 nM in assay [4] (setting [6]). The “Splenocyte IL6 EC50 (nM)” value in assay [3] is “inactive”.

As to `CCOc1nc(N)c2nc(O)n(Cc3ccc(CNCc4cccnc4)cc3OC)c2n1` [Compound 193], the concentration giving a half-maximal response (EC50) in assay [1] is 60 nM; in assay [2], 5.9 nM; in assay [3] it was 48.2 nM; in assay [4] (setting [5]), 0.1 to 1 nM; in assay [4] (setting [6]), 109 nM.

Consider `CCCCCNc1nc(N)c2nc(O)n(Cc3ccc(CNC4CCNCC4)cc3)c2n1` [Compound 194, 6-amino-2-(pentylamino)-9-(4-((piperidin-4-ylamino)methyl)benzyl)-9H-purin-8-ol], for which the EC50 in assay [1] was 311 nM; in assay [2], 35.9 nM; in assay [3], 1390 nM; in assay [4] (setting [5]) it was 1 to 10 nM; in assay [4] (setting [6]) it was 1100 nM.

Consider `CCCCCNc1nc(N)c2nc(O)n(Cc3ccc(CNCCN4CCNCC4)cc3)c2n1` [Compound 195, 6-amino-2-(pentylamino)-9-(4-(((2-(piperazin-1-yl)ethyl)amino)methyl)-benzyl)-9H-purin-8-ol], for which the EC50 stood at 1750 nM in assay [1], 127 nM in assay [2], 1000 nM in assay [3] and 791 nM in assay [4] (setting [6]).
